In US10654808B2, “Tyrosine kinase inhibitor and pharmaceutical composition comprising same” (GUANGDONG RAYNOVENT BIOTECH CO., LTD., priority 2015, dated 2020):

Key:
Assay type in all cases: biochemical
PDGFRB = biological target: T1, PDGFRB (Homo sapiens, UniProt P09619); test: Z'-LYTE in vitro enzyme activity assay, PDGFRB; details: 100 μM ATP, 60 minutes, room temperature; read-out: IC50 detected by Z'-LYTE, PDGFRB
T1 construct: purchased Millipore
Protocol: (§1) The enzyme activity was measured by Z′-LYTE™ Detection Kinase Assay. The IC50 value of the compounds was used as an index to evaluate the inhibitory effect of the compounds on VEGFR2, FGFR1 and PDGFRB.
(§2) Recombinant human VEGFR2 and FGFR1 proteases were purchased from Life technology, PDGFRB Protease was purchased from Millipore.
(§3) Z-LYTE™ Kit Tyr1 and Tyr4 were purchased from Life technology. Multi-microplate reader, Envision (PerkinElmer) read board was used.
(§4) The test compounds were diluted 3 times with a concentration gradient, the final concentration was from 10 μM to 0.17 nM with a total of 11 concentrations, and each concentration had two parallel holes; the content of DMSO in the assay was 1%.
(§5) 40 nM PDGFRB protein kinase, 2 μM Tyr4 peptide, 100 μM ATP, 50 mM HEPES (pH 7.5), 10 mM MgCl2, 1 mM EGTA, 0.01% BRIJ-35, 2 mM MnCl2, 1 mM DTT. The detector plate was Black Proxiplate 384-Plus plate (PerkinElmer), the reaction was performed at room temperature for 60 minutes, and the reaction system was 10 μl.
(§6) The reaction was stopped by adding 5 μl of DV reagent B (1:128) to the kinase reaction solution and incubated at 23° C. for 60 minutes. The Envision instrument was used to read the plate.
(§7) The data was converted to phosphorylation rate and inhibition rate and the 4 parameter curve fitting (Model 205 in XLFIT5, iDBS) was used to get IC50 data of the compounds.

VEGFR2 = biological target: T2, VEGFR2 (Homo sapiens, UniProt P35968); test: Z'-LYTE in vitro enzyme activity assay, VEGFR2; details: 100 μM ATP, 60 minutes, room temperature; read-out: IC50 detected by Z'-LYTE, VEGFR2
T2 construct: purchased Life technology
Protocol: as §1, §2, §3, §4
3 nM VEGFR2 protein kinase, 2 μM Tyr1 peptide, 100 μM ATP, 50 mM HEPES (pH 7.5), 10 mM MgCl2, 1 mM EGTA, 0.01% BRIJ-35. The detector plate was Black Proxiplate 384-Plus plate (PerkinElmer), the reaction was performed at room temperature for 60 minutes, and the reaction system was 10 μl.
as §6, §7

FGFR1 = biological target: T3, FGFR1 (Homo sapiens, UniProt P11362); test: Z'-LYTE in vitro enzyme activity assay, FGFR1; details: 25 μM ATP, 60 minutes, room temperature; read-out: IC50 detected by Z'-LYTE, FGFR1
T3 construct: purchased Life technology
Protocol: as §1, §2, §3, §4
as §5, with “1” for “40”, “FGFR1” for “PDGFRB”, “25” for “100”
as §6, §7

T2 sequence (P35968 20-1356): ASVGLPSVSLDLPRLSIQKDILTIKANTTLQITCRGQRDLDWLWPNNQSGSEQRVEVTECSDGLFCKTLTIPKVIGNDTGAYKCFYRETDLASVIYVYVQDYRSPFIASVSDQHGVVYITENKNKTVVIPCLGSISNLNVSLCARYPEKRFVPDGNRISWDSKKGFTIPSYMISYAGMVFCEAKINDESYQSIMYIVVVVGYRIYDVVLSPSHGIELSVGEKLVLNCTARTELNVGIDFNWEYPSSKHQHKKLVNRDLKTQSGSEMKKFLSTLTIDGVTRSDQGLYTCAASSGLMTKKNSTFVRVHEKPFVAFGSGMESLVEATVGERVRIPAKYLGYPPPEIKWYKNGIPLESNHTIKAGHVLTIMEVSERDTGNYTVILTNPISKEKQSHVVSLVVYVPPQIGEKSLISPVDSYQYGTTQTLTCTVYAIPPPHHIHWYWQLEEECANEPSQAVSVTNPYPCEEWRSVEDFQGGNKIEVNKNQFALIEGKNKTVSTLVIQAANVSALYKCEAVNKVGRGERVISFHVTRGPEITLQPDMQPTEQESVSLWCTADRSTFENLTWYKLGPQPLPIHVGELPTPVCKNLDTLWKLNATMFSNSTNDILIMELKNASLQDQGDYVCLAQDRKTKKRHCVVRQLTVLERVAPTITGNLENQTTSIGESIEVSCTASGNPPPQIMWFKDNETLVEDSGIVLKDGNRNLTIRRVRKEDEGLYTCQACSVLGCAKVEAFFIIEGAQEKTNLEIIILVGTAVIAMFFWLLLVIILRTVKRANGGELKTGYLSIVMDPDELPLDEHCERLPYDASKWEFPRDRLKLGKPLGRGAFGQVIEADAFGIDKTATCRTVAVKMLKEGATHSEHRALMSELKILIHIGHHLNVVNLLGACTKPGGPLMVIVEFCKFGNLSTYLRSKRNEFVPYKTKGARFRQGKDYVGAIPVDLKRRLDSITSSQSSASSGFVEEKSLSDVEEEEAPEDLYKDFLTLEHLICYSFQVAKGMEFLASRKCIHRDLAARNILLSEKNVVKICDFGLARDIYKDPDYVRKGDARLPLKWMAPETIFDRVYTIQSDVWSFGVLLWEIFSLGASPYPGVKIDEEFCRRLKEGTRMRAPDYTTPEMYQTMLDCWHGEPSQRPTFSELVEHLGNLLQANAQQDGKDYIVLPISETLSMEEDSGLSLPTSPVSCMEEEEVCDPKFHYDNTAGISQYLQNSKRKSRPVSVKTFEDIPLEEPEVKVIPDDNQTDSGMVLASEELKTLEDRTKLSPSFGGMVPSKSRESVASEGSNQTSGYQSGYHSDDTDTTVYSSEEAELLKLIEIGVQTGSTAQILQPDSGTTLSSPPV
T1 sequence (P09619 33-1106): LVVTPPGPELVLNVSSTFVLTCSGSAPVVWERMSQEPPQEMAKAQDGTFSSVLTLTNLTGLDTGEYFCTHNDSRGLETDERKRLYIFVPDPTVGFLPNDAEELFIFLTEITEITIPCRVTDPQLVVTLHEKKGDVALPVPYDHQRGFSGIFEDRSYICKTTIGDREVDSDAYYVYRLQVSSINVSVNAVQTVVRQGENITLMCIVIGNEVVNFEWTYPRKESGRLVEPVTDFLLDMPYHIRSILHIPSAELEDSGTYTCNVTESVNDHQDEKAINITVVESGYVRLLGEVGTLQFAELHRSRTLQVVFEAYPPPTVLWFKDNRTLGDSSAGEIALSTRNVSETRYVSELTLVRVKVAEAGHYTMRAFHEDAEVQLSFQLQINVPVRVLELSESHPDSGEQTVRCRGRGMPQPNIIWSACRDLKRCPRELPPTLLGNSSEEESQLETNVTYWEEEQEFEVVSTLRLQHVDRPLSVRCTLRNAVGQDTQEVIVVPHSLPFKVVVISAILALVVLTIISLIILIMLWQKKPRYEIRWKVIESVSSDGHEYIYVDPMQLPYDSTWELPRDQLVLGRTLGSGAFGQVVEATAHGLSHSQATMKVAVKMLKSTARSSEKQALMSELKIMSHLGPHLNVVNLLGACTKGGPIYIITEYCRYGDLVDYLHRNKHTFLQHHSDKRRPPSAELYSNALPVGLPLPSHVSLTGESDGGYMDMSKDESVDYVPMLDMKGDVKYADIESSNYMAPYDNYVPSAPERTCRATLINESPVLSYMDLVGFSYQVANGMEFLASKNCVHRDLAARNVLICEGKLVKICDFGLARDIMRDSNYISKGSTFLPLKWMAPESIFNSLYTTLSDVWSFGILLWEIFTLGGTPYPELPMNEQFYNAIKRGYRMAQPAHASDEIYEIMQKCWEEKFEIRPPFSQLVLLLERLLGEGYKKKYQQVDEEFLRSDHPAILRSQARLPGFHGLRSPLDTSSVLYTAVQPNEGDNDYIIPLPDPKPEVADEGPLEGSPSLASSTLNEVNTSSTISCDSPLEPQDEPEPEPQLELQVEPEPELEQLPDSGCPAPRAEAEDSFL
T3 sequence (P11362 22-822): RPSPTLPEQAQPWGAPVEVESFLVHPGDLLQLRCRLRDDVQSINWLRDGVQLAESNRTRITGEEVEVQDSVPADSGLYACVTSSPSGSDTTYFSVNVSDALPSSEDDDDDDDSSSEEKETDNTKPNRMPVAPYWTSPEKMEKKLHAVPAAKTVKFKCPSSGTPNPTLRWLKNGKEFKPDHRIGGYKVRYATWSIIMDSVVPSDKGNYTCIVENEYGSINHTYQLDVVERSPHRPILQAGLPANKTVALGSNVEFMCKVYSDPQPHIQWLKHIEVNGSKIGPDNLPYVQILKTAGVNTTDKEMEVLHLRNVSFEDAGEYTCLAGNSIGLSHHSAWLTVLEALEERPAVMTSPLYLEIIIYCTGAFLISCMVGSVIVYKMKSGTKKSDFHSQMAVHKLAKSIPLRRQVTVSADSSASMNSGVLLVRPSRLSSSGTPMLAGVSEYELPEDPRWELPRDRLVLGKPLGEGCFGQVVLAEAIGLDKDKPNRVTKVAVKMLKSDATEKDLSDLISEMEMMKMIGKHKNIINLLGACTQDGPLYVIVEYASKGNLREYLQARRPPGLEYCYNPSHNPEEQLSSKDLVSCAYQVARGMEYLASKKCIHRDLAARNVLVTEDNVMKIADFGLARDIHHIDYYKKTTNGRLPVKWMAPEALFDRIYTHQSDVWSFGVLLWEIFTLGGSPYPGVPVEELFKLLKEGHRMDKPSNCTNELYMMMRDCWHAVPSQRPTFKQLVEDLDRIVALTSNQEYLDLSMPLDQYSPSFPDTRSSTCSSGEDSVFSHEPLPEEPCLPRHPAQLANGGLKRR

`COc1cc2nccc(Oc3ccc(NC(=O)N4CC[C@@H](F)C4)c(Cl)c3F)c2cc1C(N)=O` [Example 113] gave an IC50 (PDGFRB) of 200 to 1000 nM, an IC50 (VEGFR2) of 200 to 1000 nM and an IC50 (FGFR1) of 200 to 1000 nM.

`COc1cc2nccc(Oc3ccc(NC(=O)N4CC[C@@H](O)C4)c(Cl)c3F)c2cc1C(N)=O` [Example 115] showed an IC50 (PDGFRB) of 200 to 1000 nM, an IC50 (VEGFR2) of 200 to 1000 nM and an IC50 (FGFR1) of 200 to 1000 nM.

Compound `COc1cc2nccc(Oc3ccc(NC(=O)N4CC[C@H](F)C4)c(Cl)c3F)c2cc1C(N)=O` [Example 117] has an IC50 (PDGFRB) of 50 to 200 nM, an IC50 (VEGFR2) of 50 to 200 nM and an IC50 (FGFR1) of 200 to 1000 nM.

`COc1cc2nccc(Oc3ccc(NC(=O)N4CC[C@H](O)C4)c(Cl)c3F)c2cc1C(N)=O` [Example 118] gave an IC50 (PDGFRB) of 50 to 200 nM, an IC50 (VEGFR2) of 50 to 200 nM and an IC50 (FGFR1) of 200 to 1000 nM.

`COc1cc2nccc(Oc3ccc(NC(=O)N4CC(F)(F)C4)c(Cl)c3F)c2cc1C(N)=O` [Example 119] was tested, and the IC50 (PDGFRB) was < 50 nM, the IC50 (VEGFR2) was 50 to 200 nM and the IC50 (FGFR1) was 200 to 1000 nM.

Work on `COc1cc2nccc(Oc3ccc(NC(=O)N4CCCC4)c(Cl)c3F)c2cc1C(N)=O` [Example 120] yielded an IC50 (PDGFRB) of 50 to 200 nM, an IC50 (VEGFR2) of 50 to 200 nM and an IC50 (FGFR1) of 200 to 1000 nM.

With `COc1cc2nccc(Oc3ccc(NC(=O)N4CC(O)C4)c(Cl)c3F)c2cc1C(N)=O` [Example 121] the IC50 (PDGFRB) was 200 to 1000 nM, the IC50 (VEGFR2) was 50 to 200 nM and the IC50 (FGFR1) was 200 to 1000 nM.

With `COc1cc2nccc(Oc3ccc(NC(=O)N4CC(F)C4)c(Cl)c3F)c2cc1C(N)=O` [Example 122] the IC50 (PDGFRB) was < 50 nM, the IC50 (VEGFR2) was 50 to 200 nM and the IC50 (FGFR1) was 200 to 1000 nM.

For `COc1cc2nccc(Oc3ccc(Nc4c(NCCN(C)C)c(=O)c4=O)c(Cl)c3)c2cc1C(N)=O` [Example 136], the IC50 (PDGFRB) was 200 to 1000 nM, the IC50 (VEGFR2) was 200 to 1000 nM and the IC50 (FGFR1) was 200 to 1000 nM.

In the case of `COc1cc2nccc(Oc3ccc(Nc4c(NCCC#N)c(=O)c4=O)c(Cl)c3)c2cc1C(N)=O` [Example 137], the IC50 (PDGFRB) is reported as 200 to 1000 nM, the IC50 (VEGFR2) is reported as 200 to 1000 nM and the IC50 (FGFR1) is reported as 200 to 1000 nM.

In the case of `COc1cc2nccc(Oc3ccc(Nc4c(NCC(F)(F)F)c(=O)c4=O)c(Cl)c3)c2cc1C(N)=O` [Example 138], the IC50 (PDGFRB) is reported as 200 to 1000 nM, the IC50 (VEGFR2) is reported as 200 to 1000 nM and the IC50 (FGFR1) is reported as 200 to 1000 nM.

`COc1cc2nccc(Oc3ccc(Nc4c(NC5CCOCC5)c(=O)c4=O)c(Cl)c3)c2cc1C(N)=O` [Example 139] gave an IC50 (PDGFRB) of 200 to 1000 nM, an IC50 (VEGFR2) of 200 to 1000 nM and an IC50 (FGFR1) of 200 to 1000 nM.

For `CCCNc1c(Nc2ccc(Oc3ccnc4cc(OC)c(C(N)=O)cc34)cc2Cl)c(=O)c1=O` [Example 140], the IC50 (PDGFRB) was 200 to 1000 nM, the IC50 (VEGFR2) was 200 to 1000 nM and the IC50 (FGFR1) was 200 to 1000 nM.

With `COCCCNc1c(Nc2ccc(Oc3ccnc4cc(OC)c(C(N)=O)cc34)cc2Cl)c(=O)c1=O` [Example 141] the IC50 (PDGFRB) was 200 to 1000 nM, the IC50 (VEGFR2) was 200 to 1000 nM and the IC50 (FGFR1) was 200 to 1000 nM.

Work on `COc1cc2nccc(Oc3ccc(Nc4c(NCC(C)C)c(=O)c4=O)c(Cl)c3)c2cc1C(N)=O` [Example 144] yielded an IC50 (PDGFRB) of 200 to 1000 nM, an IC50 (VEGFR2) of 200 to 1000 nM and an IC50 (FGFR1) of 200 to 1000 nM.

`COc1cc2nccc(Oc3ccc(Nc4c(NC5CCC5)c(=O)c4=O)c(Cl)c3)c2cc1C(N)=O` [Example 145] was tested, and the IC50 (PDGFRB) was < 50 nM, the IC50 (VEGFR2) was 200 to 1000 nM and the IC50 (FGFR1) was 200 to 1000 nM.

Work on `COc1cc2nccc(Oc3ccc(Nc4c(Nc5cccnc5)c(=O)c4=O)c(Cl)c3)c2cc1C(N)=O` [Example 147] yielded an IC50 (PDGFRB) of 200 to 1000 nM, an IC50 (VEGFR2) of 200 to 1000 nM and an IC50 (FGFR1) of 200 to 1000 nM.

With `COc1cc2nccc(Oc3ccc(Nc4c(NCc5ccccc5)c(=O)c4=O)c(Cl)c3)c2cc1C(N)=O` [Example 148] the IC50 (PDGFRB) was < 50 nM, the IC50 (VEGFR2) was 200 to 1000 nM and the IC50 (FGFR1) was 200 to 1000 nM.

For `COc1cc2nccc(Oc3ccc(Nc4c(NCc5cccnc5)c(=O)c4=O)c(Cl)c3)c2cc1C(N)=O` [Example 149], the IC50 (PDGFRB) was 200 to 1000 nM, the IC50 (VEGFR2) was 200 to 1000 nM and the IC50 (FGFR1) was 200 to 1000 nM.

With `COc1cc2nccc(Oc3ccc(Nc4c(NCc5ccccn5)c(=O)c4=O)c(Cl)c3)c2cc1C(N)=O` [Example 150] the IC50 (PDGFRB) was < 50 nM, the IC50 (VEGFR2) was 200 to 1000 nM and the IC50 (FGFR1) was 200 to 1000 nM.

With `COc1cc2nccc(Oc3ccc(Nc4c(NCc5ccc(Cl)cc5)c(=O)c4=O)c(Cl)c3)c2cc1C(N)=O` [Example 151] the IC50 (PDGFRB) was < 50 nM, the IC50 (VEGFR2) was 200 to 1000 nM and the IC50 (FGFR1) was 200 to 1000 nM.

`COc1cc2nccc(Oc3ccc(Nc4c(NCc5ccncc5)c(=O)c4=O)c(Cl)c3)c2cc1C(N)=O` [Example 153] gave an IC50 (PDGFRB) of 200 to 1000 nM, an IC50 (VEGFR2) of 200 to 1000 nM and an IC50 (FGFR1) of 200 to 1000 nM.

Work on `COc1cc2nccc(Oc3ccc(Nc4c(NCCc5ccccc5)c(=O)c4=O)c(Cl)c3)c2cc1C(N)=O` [Example 154] yielded an IC50 (PDGFRB) of 200 to 1000 nM, an IC50 (VEGFR2) of 200 to 1000 nM and an IC50 (FGFR1) of 200 to 1000 nM.
